Results reported in US20260070902A1, “SULFONYL DERIVATIVES AS CCR6 INHIBITORS” (Hoffmann-La Roche Inc., priority 2022, published 2026).
pIC50: −log10 of the molar value.

Key:
[1] = molecular target: T1, human CCR6 (Homo sapiens, UniProt P51684); assay: Human CCR6-CRE reporter assay; format: cell-based; parameters: The second construct contained the open reading frame of human CCR6 in the pUNO1 backbone; host or cells: 293FT cells; conditions: relative -Log IC50; 293FT cells transfected with human CCR6 and CRE-luciferase reporter; 6 μM Forskolin, 6 nM CCL20; 5 h
T1 sequence (P51684 1-374): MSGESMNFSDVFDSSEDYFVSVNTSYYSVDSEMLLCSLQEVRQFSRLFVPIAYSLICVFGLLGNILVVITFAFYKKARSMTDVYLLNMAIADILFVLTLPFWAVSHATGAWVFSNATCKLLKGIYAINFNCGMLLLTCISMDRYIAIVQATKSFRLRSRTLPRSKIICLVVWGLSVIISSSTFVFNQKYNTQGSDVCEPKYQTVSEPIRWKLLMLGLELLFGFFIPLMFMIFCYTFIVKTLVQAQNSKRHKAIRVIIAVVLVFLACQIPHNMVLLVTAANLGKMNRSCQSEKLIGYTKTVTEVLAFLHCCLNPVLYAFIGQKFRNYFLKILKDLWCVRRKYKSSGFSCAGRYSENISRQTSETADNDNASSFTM
In short: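 293FT cells transiently co-transfected with human CCR6 and a CRE-luc2P reporter, used 48 h later. Compounds incubated with cells in medium containing 6 μM Forskolin and 6 nM CCL20 (assay-medium levels), 0.1% DMSO final, 5 h at 37° C; luminescence read, relative −Log IC50 from four-parameter fit.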

[2] = tested on: Human CD4+ T cells; assay: CD4+ T cells chemotaxis assay towards CCL20; format: cell-based; conditions: Homo sapiens, CD4+ T cell, 3 h, relative -Log IC50, human CD4+ T cells stimulated with anti-CD3 and anti-CD28, migration towards 150 ng/ml CCL20
Source text: CD4+ T Cells Chemotaxis Assay Towards CCL20
Human CD4+ T cells were isolated from buffy coats of healthy donors using a CD4+ T Cell Isolation Kit (Miltenyi Biotec130-096-533). Isolated T cells were stimulated overnight with anti-CD3 and anti-CD28 antibodies (Biolegend 300314/302934) in growth medium (RPMI1640, 10% heat-inactivated FBS, 1× pen/strep (Gibco 15140)). For the chemotaxis assay, Corning Transwell plates were used with a pore size of 5 m (Corning 3388). T cells were counted and diluted to 6*10^6 cells/ml in chemotaxis medium (RPMI1640, 1% BSA, pen/strep). Compounds were four-fold serially diluted in DMSO. Further dilutions were made in chemotaxis medium. Cells were incubated with test compounds for 30 min at 37° C. prior to initiation of the assay (3*10^6 cells/ml). Final DMSO concentration in the assay was 0.2%. Wells of the Transwell plates were filled with 200 μl chemotaxis medium containing 150 ng/ml CCL20 (R&D systems 360-MP). 50 μl of the cell/compound suspension was added to the inserts of the Transwell plates (150,000 cells/insert). The Transwell plates were placed in an incubator at 37° C., 5% CO2 for 3 h. After 3 h, the number of migrated cells was quantified using CellTiter Glo (Promega). Percentage inhibition values were calculated based on the low and high signal obtained with 0.2% DMSO in chemotaxis medium without and with CCL20, respectively. The relative −Log IC50 was determined with GraphPad Prism 9 using a four-parameter dose-response model.

| Structure (SMILES) | pIC50 [1] | pIC50 [2] |
| --- | --- | --- |
| N=S(=O)(c1ccc(-c2ccnc(C(N)=O)c2)cc1)[C@H]1CC[C@H](Nc2ccc(S(F)(F)(F)(F)F)cc2)CC1 (stereo partly drawn) [Example 91, 4-(4-{[trans-4-{[4-(pentafluoro-λ^6-sulfanyl)phenyl]Amino}cyclohexyl]sulfonimidoyl}phenyl)pyridine-2-carboxamide] | 6.90 | 7.50 |
| N=S(=O)(c1ccc(-c2ccnc(C(N)=O)c2)cc1)N1CCC(Nc2ccc(S(F)(F)(F)(F)F)cc2)CC1 (stereo not shown) [Example 125, 4-{4-[(4-{[4-(pentafluoro-λ^6-sulfanyl)phenyl]Amino}piperidin-1-yl)sulfonimidoyl]phenyl}pyridine-2-carboxamide] | 6.70 | 6.90 |
| COC1CC2(CCN(c3ccc(S(=O)(=O)N4CCC(Nc5ccc(S(F)(F)(F)(F)F)cc5)CC4)cc3)CC2)C1 [Example 132, 1-(4-{2-methoxy-7-azaspiro[3.5]nonan-7-yl}benzenesulfonyl)-N-[4-(pentafluoro-λ^6-sulfanyl)phenyl]piperidin-4-amine] | 7.10 | 7.70 |
| O=C1NC(=O)C2(CCN(c3ccc(S(=O)(=O)N4CCC(Nc5ccc(S(F)(F)(F)(F)F)cc5)CC4)cc3)CC2)N1 [Example 133, 8-{4-[(4-{[4-(pentafluoro-λ^6-sulfanyl)phenyl]amino}piperidin-1-yl)sulfonyl]phenyl}-1,3,8-triazaspiro[4.5]decane-2,4-dione] | 7.40 | 8.40 |
| O=C1NCCC12CCN(c1ccc(S(=O)(=O)N3CCC(Nc4ccc(S(F)(F)(F)(F)F)cc4)CC3)cc1)CC2 [Example 134, 8-{4-[(4-{[4-(pentafluoro-λ^6-sulfanyl)phenyl]amino}piperidin-1-yl)sulfonyl]phenyl}-2,8-diazaspiro[4.5]decan-1-one] | 6.80 | 8.00 |
| O=C1NC2(CCN(c3ccc(S(=O)(=O)N4CCC(Nc5ccc(S(F)(F)(F)(F)F)cc5)CC4)cc3)CC2)CO1 [Example 135, 8-{4-[(4-{[4-(pentafluoro-λ^6-sulfanyl)phenyl]amino}piperidin-1-yl)sulfonyl]phenyl}-3-oxa-1,8-diazaspiro[4.5]decan-2-one] | 6.90 | 7.60 |
| O=S(=O)(c1ccc(N2CCC3(CC2)COC3)cc1)N1CCC(Nc2ccc(S(F)(F)(F)(F)F)cc2)CC1 [Example 136, 1-(4-{2-oxa-7-azaspiro[3.5]nonan-7-yl}benzenesulfonyl)-N-[4-(pentafluoro-λ^6-sulfanyl)phenyl]piperidin-4-amine] | 6.90 | 6.70 |
| O=S(=O)(c1ccc(N2CC3CCC(C2)O3)cc1)N1CCC(Nc2ccc(S(F)(F)(F)(F)F)cc2)CC1 [Example 137, 1-(4-{8-oxa-3-azabicyclo[3.2.1]octan-3-yl}benzenesulfonyl)-N-[4-(pentafluoro-λ^6-sulfanyl)phenyl]piperidin-4-amine] | 6.70 | 6.90 |
| CC(C)c1nnc2cnc(-c3ccc(S(=O)(=O)N4CCC(Nc5ccc(S(F)(F)(F)(F)F)cc5)CC4)cc3)cn12 [Example 140, N-[4-(pentafluoro-λ^6-sulfanyl)phenyl]-1-{4-[3-(propan-2-yl)-[1,2,4]triazolo[4,3-a]pyrazin-6-yl]benzenesulfonyl}piperidin-4-amine] | 7.20 | 8.60 |
| NC(=O)c1cc(-c2ccc(S(=O)(=O)[C@H]3CC[C@H](Nc4ccc(S(F)(F)(F)(F)F)cc4)CC3)cc2)cs1 [Example 148, 4-(4-{[trans-4-{[4-(pentafluoro-λ^6-sulfanyl)phenyl]amino}cyclohexyl]sulfonyl}phenyl)thiophene-2-carboxamide] | 7.30 | 8.30 |
| Cc1n[nH]c2ncc(-c3ccc(S(=O)(=O)[C@H]4CC[C@H](Nc5ccc(S(F)(F)(F)(F)F)cc5)CC4)cc3)cc12 [Example 150, 4-(pentafluoro-λ^6-sulfanyl)-N-[trans-4-(4-{3-methyl-1H-pyrazolo[3,4-b]pyridin-5-yl}benzenesulfonyl)cyclohexyl]aniline] | 7.20 | 9.00 |
